The target of the test is T1, Stp1/Stp4/Stp3 subcomplex (Mycosarcoma maydis, UniProt A0A0D1C5E3+A0A0D1CU07+A0A0D1EAN2).
T1 sequence (A0A0D1CU07 29-515): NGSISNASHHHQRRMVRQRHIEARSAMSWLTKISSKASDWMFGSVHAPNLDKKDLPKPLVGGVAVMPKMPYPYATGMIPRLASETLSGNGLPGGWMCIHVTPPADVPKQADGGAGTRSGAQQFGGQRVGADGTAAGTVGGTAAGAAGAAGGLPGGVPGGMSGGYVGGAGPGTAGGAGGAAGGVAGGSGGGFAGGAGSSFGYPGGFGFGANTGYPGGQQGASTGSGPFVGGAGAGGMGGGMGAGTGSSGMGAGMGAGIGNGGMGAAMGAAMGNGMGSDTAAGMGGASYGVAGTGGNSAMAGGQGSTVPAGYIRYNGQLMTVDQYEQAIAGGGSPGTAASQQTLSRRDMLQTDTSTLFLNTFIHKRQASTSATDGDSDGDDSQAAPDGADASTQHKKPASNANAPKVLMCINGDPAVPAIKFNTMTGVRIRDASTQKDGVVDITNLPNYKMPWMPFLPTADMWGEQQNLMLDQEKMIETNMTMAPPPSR
T1 sequence (A0A0D1C5E3 24-129): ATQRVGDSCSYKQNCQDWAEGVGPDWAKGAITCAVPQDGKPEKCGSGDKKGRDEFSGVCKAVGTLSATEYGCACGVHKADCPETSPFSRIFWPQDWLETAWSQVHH
T1 sequence (A0A0D1EAN2 25-327): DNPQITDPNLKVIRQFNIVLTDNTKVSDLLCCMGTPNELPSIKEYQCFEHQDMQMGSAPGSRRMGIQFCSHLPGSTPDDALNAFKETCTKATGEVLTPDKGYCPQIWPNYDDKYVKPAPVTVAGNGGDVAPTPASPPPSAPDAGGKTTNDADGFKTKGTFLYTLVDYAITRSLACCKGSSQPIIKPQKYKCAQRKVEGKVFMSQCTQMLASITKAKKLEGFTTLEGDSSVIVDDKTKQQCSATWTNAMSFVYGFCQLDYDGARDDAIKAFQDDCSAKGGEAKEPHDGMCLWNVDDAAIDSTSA
Briefly: Alamar Blue viability assay in S. cerevisiae 2-hybrid strain NL73 (viability depends on Stp complex formation). It is filed as cell-based, U. maydis. Conditions: for activity in the Alamar Blue assay with NL73: result in words. The source says: To develop a screening platform based on Stp complex formation, a Saccharomyces cerevisiae 2-hybrid system was used. […] After co-transformation, reporter gene transcription is activated only if the two fusion proteins interact in the yeast nucleus. Moreover, the S. cerevisiae strain AH109 harbours the reporter genes ADE2 and HIS3, which encode for two enzymes that are crucial for adenine (Ade) and histidine (His) biosynthesis and thereby enable nutritional selection as a read-out for the interaction between proteins. In the following experiments, growth on high-stringency synthetic defined (SD) medium (SD -Leu -Trp -Ade -His) was used to identify if the complex members interact between them causing expression of ADE2 and HIS3. Additionally, strains were also grown on low-stringency medium (SD -Leu -Trp) to confirm their viability. […] All experiments were done with three independent transformants to exclude false positives due to spontaneous mutations.
The S. cerevisiae strain AH109 from Clontech (Saint-Germain-en-Laye, France) is auxotrophic for tryptophan, leucine, adenine and histidine. In addition, lacz is under control of the MEL1 UAS to be used as readout for quantitative β-galactosidase assays.
The resulting test strain NL73 (AD-Stp4/BD-Stp1/myc-Stp3) expresses the Stp1/Stp4/Stp3 subcomplex. NL73 carries the following three plasmids: pGBKT7-stp1: pGBKT7 vector expressing proteins fused to the GAL4 DNA binding domain (DNA-BD). pGBKT7 also contains the T7 promoter, a c-Myc epitope tag, and a MCS. The vector carries a Kanamycin resistance gene (Kanr) for selection in E. coli and the TRP1 nutritional marker for selection in yeast. pGAD-stp4: pGADT7 vector expressing proteins fused to a GAL4 activation domain (AD). The GAL4 AD fusion contains an N-terminal nuclear localization signal that targets the protein to the yeast nucleus, and a HA Tag, located between the GAL4 AD and the protein of interest. The vector carries an ampicillin resistance gene (Ampr) for selection in E. coli and a LEU2 nutritional marker for selection in yeast. pYEA-stp3-myc: pYEA vector expressing proteins under the control of the phosphoglycerate kinase promoter. The vector carries an ampicillin resistance gene (Ampr) for selection in E. coli and an ADE2 nutritional marker for selection in yeast. As control strain, NL70 containing empty vectors was generated (AH109Δabc9 pGAD::LEU2 pGBK::TRP1 pYEA::ADE2).
After that, 25 µl of NL73 cell suspension were dispensed into the assay plates using Multidrop Combi (Thermofisher Scientific) giving a final screening concentration of 10 µM. One column of the assay plate was filled with 25 µl of NL70 control strain cell suspension as negative control. Plates were sealed with Breathe-Easy sealing membrane (Sigma, Z380059), lidded and incubated in a humid chamber over night at 30°C and 140 rpm in an HT Multitron Pro (Infors). […] For the viability assay, the alamar Blue HS Cell Viability reagent (Invitrogen, #A50101) was pre-diluted using an equal amount of dVE-H2O and 5 µl of diluted Alamar Blue were added to the screening plates using Multidrop Combi. The plates were sealed again and incubated for 4 h at room temperature, unlidded. […] Screening data was normalized to DMSO-treated NL73 cells (that received DMSO in the same concentration as in samples where compounds dissolved in DMSO were added) being 100% and DMSO-treated NL70 cells representing 0% viability and analyzed with Quattro Software Suite (Quattro Research GmbH).
Background: The colour change of resazurin is a common sign of viable cells or microbes.

Setting [1] is: NL73 strain, Table 5, read-out: A-blue IC50.

The structures appear in SMILES notation. Where two headings read alike, the source gives them in different places.

Usually IC50 stands for the concentration that inhibits the measured activity by half. As to `Cc1ccc(-c2c(-c3ccc(C)cc3)[n+]([O-])c3ccccn23)cc1` [Compound 1-A], the “activity in the Alamar Blue assay with NL73” value is reported as “nanomolar potency”. In addition, under setting [1], the half-inhibitory concentration (IC50) worked out at 0.14 µM.

As to `CC(C)n1ncc2cc(NS(=O)(=O)c3cc(F)ccc3F)cnc21` [Compound 1-B], for the setting “read-out: IC50 in the Alamar Blue viability assay of NL73”, the half-maximal inhibitory concentration (IC50) worked out at 2.5 µM.

Turning to `Cc1ccc(CSc2nc(=O)n(C3CCCC3)c3c2CCC3)cc1` [Compound 1-C], the “activity in the Alamar Blue assay with NL73” value is “active in the nanomolar range”. In addition, the IC50 (inhibitory activity on NL73 viability, Table 6, read-out: IC50) was 0.67 µM.

Turning to `[O-][n+]1c(-c2ccc(C(F)(F)F)cc2)c(-c2ccc(C(F)(F)F)cc2)n2ccccc21` [Compound 2-A], the IC50 under setting [1] amounted to 0.02 µM.

For the compound `O=[N+]([O-])c1ccc(-c2c(-c3ccccc3)n3ccccc3[n+]2[O-])cc1` [Compound 3-A], the concentration for half-maximal inhibition (IC50) under setting [1] was found to be 0.25 µM.

The record behind these values is patent EP4039094A1, “NOVEL ANTIFUNGAL COMPOUNDS” (Max-Planck-Gesellschaft zur Förderung der Wissenschaften …, priority 2021, dated 2022).
